pIC50: −log10 of the molar value. Counter-ions that a name gives are not always drawn.
target: T1, purified human IDO protein (Homo sapiens, UniProt P14902, E119G/P110S); experiment: Enzymatic IDO assay (kynurenine formation, absorbance at 480 nm); type: biochemical; conditions: recombinant human IDO, 200 μM L-tryptophan, pH 6.5; reported in ranges
T1 construct: 6-Histidine tag (C); made in house; host or cells: E. coli M15(pREP4) transformed with pQE70-hIDO
Description: The inhibitors were initially diluted in DMSO at 100 mM and were diluted in potassium phosphate 50 mM, added to the reaction mixture at final concentrations raging from 1 mM to 5 nM and preincubated with the enzyme for 5 min at 25° C. The reaction was started by addition of L-tryptophan to 200 μM and incubated 15 min at 37° C. The reaction was stopped by addition of 0.5 vol of 30% trichloroacetic acid and incubated 30 min at 60° C. to hydrolyze N-formylkynurenine to kynurenine. The reaction was centrifuged at 3400 g for 5 min to remove precipitated protein and the supernatant was reacted with 2% (w/v) of p-dimethylaminobenzaldehyde in acetic acid. The reaction was incubated 10 min at 25° C. and read at 480 nm in a spectrophotometer. […] Nonlinear regressions and determination of the IC50 values were performed using the GraphPad Prism 4 software.

T1 sequence (P14902 whole entry P110S/E119G): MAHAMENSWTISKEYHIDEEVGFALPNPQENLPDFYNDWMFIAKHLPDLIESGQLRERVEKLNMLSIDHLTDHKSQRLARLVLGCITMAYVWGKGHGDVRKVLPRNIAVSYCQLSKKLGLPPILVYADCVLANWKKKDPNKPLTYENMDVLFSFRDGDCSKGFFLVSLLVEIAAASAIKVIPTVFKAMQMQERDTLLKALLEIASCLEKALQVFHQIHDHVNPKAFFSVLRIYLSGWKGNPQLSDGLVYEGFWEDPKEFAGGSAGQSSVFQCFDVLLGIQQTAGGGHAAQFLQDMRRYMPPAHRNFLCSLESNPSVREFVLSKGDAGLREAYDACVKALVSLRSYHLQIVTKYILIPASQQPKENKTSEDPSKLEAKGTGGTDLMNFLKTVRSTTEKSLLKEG

Compound	pIC50
CC(C)(C)OC(=O)Nc1ccccc1-c1c[nH]cn1 [Compound 152, tert-butyl 2-(1H-imidazol-4-yl)phenylcarbamate]	> 4.70
CC(=O)Nc1cccc(CCOc2ccccc2-c2c[nH]cn2)c1 [Compound 40, N-(3-(2-(2-(1H-imidazol-4-yl)phenoxy)ethyl)phenyl) acetamide]	> 4.70
N#CC1CCC(=CCOc2ccccc2-c2c[nH]cn2)CC1 (stereo not shown) [Compound 160, 4-(2-(2-(1H-imidazol-4-yl)phenoxy)ethylidene)cyclohexanecarbonitrile]	> 4.70
CC(C)(C)CCOc1cccc(O)c1-c1cnc[nH]1 [Compound 13, 3-(3,3-dimethylbutoxy)-2-(1H-imidazol-5-yl) phenol hydrochloride]	> 4.70
CC(C)(CCOc1ccccc1-c1c[nH]cn1)CCn1c(=O)c(F)cn([C@@H]2O[C@H](CO)[C@@H](O)[C@H]2O)c1=O [Compound 162, 3-(5-(2-(1H-imidazol-4-yl)phenoxy)-3,3-dimethylpentyl)-1-((2R,3R,4S,5R)-3,4-dihydroxy-5-(hydroxymethyl)tetrahydrofuran-2-yl)-5-fluoropyrimidine-2,4(1H,3H)-dione]	> 4.70
CCOC(=O)c1ccccc1-c1c[nH]cn1 [Compound 80, ethyl 2-(1H-imidazol-4-yl)benzoate]	4.00 to 4.70
Clc1cccc(CCOc2ccccc2-c2c[nH]cn2)c1 [Compound 33, 4-(2-(3-chlorophenethoxy)phenyl)-1H-imidazole]	> 4.70
N#Cc1ccccc1Cn1cncc1-c1ccccc1 [Compound 96, 2-((5-phenyl-1H-imidazol-1-yl)methyl)benzonitrile]	4.00 to 4.70
Oc1ccccc1Cn1cncc1-c1ccccc1 [Compound 65, 2-((5-phenyl-1H-imidazol-1-yl)methyl)phenol]	4.00 to 4.70
CC(C)(CCNCc1ccccc1)CCOc1ccccc1-c1c[nH]cn1 [Compound 166, 5-(2-(1H-imidazol-4-yl)phenoxy)-N-benzyl-3,3-dimethylpentan-1-amine]	> 4.70
Oc1cc(Cl)ccc1-c1cnc[nH]1 [Compound 63, 5-chloro-2-(1H-imidazol-5-yl)phenol]	4.00 to 4.70
Brc1ccc(-c2c[nH]cn2)cc1 [Compound 70, 5-(4-bromophenyl)-1H-imidazole]	4.00 to 4.70
Oc1ccc(C(F)(F)F)cc1-c1c[nH]cn1 [Compound 156, 2-(1H-imidazol-4-yl)-4-(trifluoromethyl)phenol]	> 4.70
c1cnc(NCCOc2ccccc2-c2cnc[nH]2)nc1 [Compound 102]	3.30 to 4.00
N#Cc1ccc(COc2ccccc2-c2c[nH]cn2)cc1 [Compound 55, 4-((2-(1H-imidazol-4-yl)phenoxy)methy)benzonitrile]	4.00 to 4.70
CCOC(=O)CCCn1cncc1-c1ccccc1 [Compound 121, ethyl 4-(5-phenyl-1H-imidazol-1-yl)butanoate]	3.30 to 4.00
O=CNCCOc1ccccc1-c1c[nH]cn1 [Compound 107, N-(2-(2-(1H-imidazol-4-yl)phenoxy)ethyl)formamide]	3.30 to 4.00
NC(=O)CCCn1cncc1-c1ccccc1 [Compound 129, 4-(5-phenyl-1H-imidazol-1-yl)butanamide]	3.30 to 4.00
Clc1ccc(COc2ccc(OCc3ccc(Cl)cc3)c(-c3c[nH]cn3)c2)cc1 [Compound 91, 4-(2,5-bis(4-chlorobenzyloxy)phenyl)-1H-imidazole]	4.00 to 4.70

Second part, the compound after the results:

pIC50	Compound
4.00 to 4.70	c1ccc(-c2c[nH]cn2)c(OCC2CCCNC2)c1 (stereo not shown) [Compound 76, 3-((2-(1H-imidazol-4-yl)phenoxy)methyl)piperidine]
4.00 to 4.70	Clc1cccc(Cn2cncc2-c2ccccc2)c1 [Compound 87, 1-(3-chlorobenzyl)-5-phenyl-1H-imidazole]
> 4.70	Oc1ccc(F)cc1-c1cc[nH]n1 [Compound 36, 4-fluoro-2-(1H-pyrazol-3-yl)phenol]
> 4.70	CC(C)(CCOc1ccccc1-c1c[nH]cn1)CCOc1ccccc1-c1cnc[nH]1 [Compound 18, 5,5′-(2,2′-(3,3-dimethylpentane-1,5-diyl)bis(oxy)bis(2,1-phenylene))bis(1H-imidazole)]
> 4.70	Clc1ccccc1Cn1cncc1-c1ccccc1 [Compound 52, 1-(2-chlorobenzyl)-5-phenyl-1H-imidazole]
4.00 to 4.70	CC(C)(CCNc1ccncc1)CCOc1ccccc1-c1cnc[nH]1 [Compound 164, N-(5-(2-(1H-imidazol-5-yl)phenoxy)-3,3-dimethylpentyl) pyridin-4-amine]
4.00 to 4.70	N#Cc1cccc(Cn2cncc2-c2ccccc2)c1 [Compound 69, 3-((5-phenyl-1H-imidazol-1-yl)methyl)benzonitrile]
3.30 to 4.00	O=C(O)c1ccc(-c2c[nH]cn2)cc1 [Compound 119, 4-(1H-imidazol-4-yl)benzoic acid]
3.30 to 4.00	CC(C)(C)CCn1cncc1-c1ccccc1OCc1ccc(Cl)cc1 [Compound 106, 5-(2-(4-chlorobenzyloxy)phenyl)-1-(3,3-dimethylbutyl)-1H-imidazole]
3.30 to 4.00	O=C(O)c1ccccc1-c1c[nH]cn1 [Compound 153, 2-(1H-imidazol-4-yl)benzoic acid]
4.00 to 4.70	c1ccc(-c2c[nH]cn2)c(OCC2CCNCC2)c1 [Compound 157, 4-((2-(1H-imidazol-4-yl)phenoxy)methyl)piperidine]
4.00 to 4.70	O=[N+]([O-])c1ccccc1Cn1cncc1-c1ccccc1 [Compound 71, 1-(2-nitrobenzyl)-5-phenyl-1H-imidazole]
4.00 to 4.70	Clc1ccc(CNc2ccccc2-c2c[nH]cn2)cc1 [Compound 62, N-(4-chlorobenzyl)-2-(1H-imidazol-4-yl)aniline]
> 4.70	NC(=O)C1CCC(=CCOc2ccccc2-c2c[nH]cn2)CC1 (stereo not shown) [Compound 168, 4-(2-(2-(1H-imidazol-4-yl)phenoxy)ethylidene)cyclohexanecarboxamide]
> 4.70	CC(=O)NCCC(C)(C)CCOc1ccccc1-c1c[nH]cn1 [Compound 53]
4.00 to 4.70	NC(=O)c1ccc(COc2ccccc2-c2c[nH]cn2)cc1 [Compound 146, 4-((2-(1H-imidazol-4-yl)phenoxy)methyl)benzamide]
> 4.70	Clc1ccc(COc2ccc(Br)cc2-c2c[nH]cn2)cc1 [Compound 49, 4-(5-bromo-2-(4-chlorobenzyloxy)phenyl)-1H-imidazole]
4.00 to 4.70	CNC(=O)Cc1cccc(COc2ccccc2-c2c[nH]cn2)c1 [Compound 57, 2-(3-((2-(1H-imidazol-4-yl)phenoxy)methyl)phenyl)-N-methylacetamide]
3.30 to 4.00	O=C(O)c1cccc(-c2c[nH]cn2)c1 [Compound 113, 3-(1H-imidazol-4-yl)benzoic acid]
> 4.70	O=C(NCc1ccccc1-c1c[nH]cn1)c1ccccc1Cl [Compound 30, N-(2-(1H-imidazol-4-yl)benzyl)-2-chlorobenzamide]
3.30 to 4.00	CNC(=O)CCCn1cncc1-c1ccccc1 [Compound 128, N-methyl-4-(5-phenyl-1H-imidazol-1-yl)butanamide]

Reference: patent US9174942B2, “IDO inhibitors” (NewLink Genetics Corporation, priority 2008, dated 2015)
